The values that follow come from PMC10451623 (Antioxidants, 2023).

Experiment [1] concerns the target T1, human PPARα (Homo sapiens, UniProt Q07869).
T1 construct: expressed in transfected cells; host or cells: COS-7
T1 sequence (Q07869 239-466 limits assumed): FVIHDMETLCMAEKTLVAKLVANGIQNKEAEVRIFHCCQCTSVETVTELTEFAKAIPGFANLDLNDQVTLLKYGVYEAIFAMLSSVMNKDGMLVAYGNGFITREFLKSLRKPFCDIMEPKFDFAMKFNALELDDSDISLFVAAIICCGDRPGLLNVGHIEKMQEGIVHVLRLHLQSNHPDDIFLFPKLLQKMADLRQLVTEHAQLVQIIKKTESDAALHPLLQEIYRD
The experiment is described as follows: Transactivation assay (GAL4–hPPARα-LBD chimera, luciferase reporter, COS-7 cells). The format is cell-based. Particulars: for Emax: 100% = 1 µM GW7647, read-out: Efficacy, PPARα transactivation (% of the maximal response); for EC50: GAL4–hPPARα-LBD. As for the experimental part: (§1) The pSG5-GAL–hPPARα/δ/γ plasmids express fusion proteins comprising the yeast transcription factor GAL4 DNA-binding domain and each of the human PPARα/δ/γ-LBDs. The MH100(UAS)×4-tk-Luc plasmid contains four copies of the MH100 GAL4 binding site and the Firefly luciferase gene. The cells were transfected with those plasmids and were treated with various PPAR ligands, and both Firefly and Renilla luciferase activities were measured using the Dual-Glo Luciferase Assay System (Promega, Madison, WI, USA) as described previously. […] GW1929 was purchased from Sigma-Aldrich (St. Louis, MO, USA).
(§2) For the undertaking of the comparison of the potency, efficacy, and selectivity of the five PPAR ligands (Figure 1A) against the PPAR subtypes, we evaluated their PPARα/δ/γ activation using three different methods: a cell-based transactivation assay, a coactivator recruitment assay, and a thermal stability assay, as we previously performed on three fibrates (namely, bezafibrate, fenofibric acid, and pemafibrate). The cell-based transactivation assay utilizing the Gal4–PPAR-LBD system is the most widely used method for the determination of PPAR activation by certain ligands, although their responses depend on the used cell types in which several coactivators with altered functions are differentially expressed.
(§3) Figure 1 LBD-mediated human PPARα/δ/γ transactivation by PPAR ligands. (A) Chemical structures of the five PPAR ligands used in this study. […] Data are presented as the mean ± standard error (SE) of three independent experiments with duplicate samples.

The target in experiment [2] is T2, human PPARδ (Homo sapiens, UniProt Q03181).
T2 construct: expressed in transfected cells; host or cells: COS-7
T2 sequence (Q03181 211-439 limits assumed): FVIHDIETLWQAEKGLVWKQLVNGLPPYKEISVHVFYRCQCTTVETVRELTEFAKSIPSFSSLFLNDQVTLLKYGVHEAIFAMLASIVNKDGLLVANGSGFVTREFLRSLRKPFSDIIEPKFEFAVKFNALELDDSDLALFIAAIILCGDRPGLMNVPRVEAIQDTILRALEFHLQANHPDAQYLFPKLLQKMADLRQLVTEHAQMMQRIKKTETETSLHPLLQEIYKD
As to the kind of experiment: Transactivation assay (GAL4–hPPARδ-LBD chimera, luciferase reporter, COS-7 cells). The format is cell-based. The conditions noted are these: for Emax: COS-7, read-out: Efficacy, PPARδ transactivation (% of the maximal response); for EC50: COS-7 cells, GAL4–hPPARδ-LBD. The procedure: as §1, §2, §3

In experiment [3] the target is T3, PPARγ-LBD (Homo sapiens, UniProt P37231).
T3 sequence (P37231 203-477 isoform P37231-2): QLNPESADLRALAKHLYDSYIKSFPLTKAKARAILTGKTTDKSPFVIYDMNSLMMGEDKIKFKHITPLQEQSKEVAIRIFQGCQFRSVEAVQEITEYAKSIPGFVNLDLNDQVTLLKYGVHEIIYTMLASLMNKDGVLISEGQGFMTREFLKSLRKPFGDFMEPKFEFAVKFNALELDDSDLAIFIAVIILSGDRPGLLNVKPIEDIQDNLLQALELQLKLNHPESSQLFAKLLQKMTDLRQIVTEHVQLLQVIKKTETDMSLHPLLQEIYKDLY
The experiment is described as follows: TR-FRET SRC1 coactivator recruitment assay. The format is biochemical. On the set-up: PPARγ-LBD (amino acids 203–477 in isoform 1); made in house; host or cells: Rosetta (DE3) pLysS (E. coli). The conditions noted are these: SRC1 peptide, read-out: EC50, SRC1 recruitment to PPARγ-LBD. As for the experimental part:
Subsequently, 5 µL of 4 nM Eu-W1024-labeled anti-6×His antibody/80 nM ULight-Streptavidin (PerkinElmer) was added to each well, and the microplate was incubated in the dark for 2 h, at room temperature. […] The nonlinear fitting and the calculation of the EC50 were performed using the Prism 9 software (GraphPad, San Diego, CA, USA).
The ligand-bound activated forms of PPARs are stabilized by associations with specific coactivators, thereby enabling the regulation of specific gene expression.
Figure 2 TR-FRET-based LBD-mediated human PPARα/δ/γ coactivator recruitment assay. […] Data are presented as the mean ± SE of three or four independent experiments with duplicate samples, and the calculated EC50 values are shown.
In general terms: TR-FRET usually uses a lanthanide donor and a delayed reading to cut background.

Experiment [4] addresses T4, PPARδ-LBD (Homo sapiens, UniProt Q03181).
T4 sequence (Q03181 170-441): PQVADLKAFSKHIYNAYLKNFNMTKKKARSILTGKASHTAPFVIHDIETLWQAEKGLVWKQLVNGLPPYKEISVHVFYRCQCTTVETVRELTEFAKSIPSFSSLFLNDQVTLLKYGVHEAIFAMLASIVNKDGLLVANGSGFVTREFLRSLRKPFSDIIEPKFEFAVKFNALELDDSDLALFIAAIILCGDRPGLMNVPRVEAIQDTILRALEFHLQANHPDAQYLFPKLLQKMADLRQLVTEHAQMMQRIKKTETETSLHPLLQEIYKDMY
The experiment is described as follows: Thermal stability assay using circular dichroism spectroscopy. The experiment is classed as binding. On the set-up: PPARδ-LBD (amino acids 170–441); His tag (pET28a) (N); made in house; host or cells: Rosetta (DE3) pLysS (E. coli). Particulars: CD at 222 nm; 10 µM LBD; GW501516 at 50 µM. As for the experimental part: PPARα/δ/γ-LBD proteins (10 µM) were incubated with different concentrations of ligands in buffer C consisting of 20 mM Tris-HCl (pH 8.0), 150 mM NaCl, 1 mM Tris 2-carboxyethylphosphine (TCEP)-HCl, and 10% glycerol. The circular dichroism (CD) spectra were monitored within a 200–260 nm range at increasing temperatures from 30 °C to 70 °C (2 °C/min) using a J-1500 spectropolarimeter equipped with a PTC-510 thermal controller (JASCO, Tokyo, Japan). […] The ligand-induced increases in the Tm values were defined as ∆Tm.
Nuclear receptors, including PPARs, display an increased thermal stability upon ligand binding, which is detectable through CD spectroscopy.
Figure 3 Circular dichroism-based PPARα/δ/γ-LBD thermal stability assay. […] Data are presented as the mean ± SE of three or four (in parentheses) independent experiments. Differences vs. basal levels (with 0.1% DMSO) were statistically assessed by one-way ANOVA, followed by a Dunnett’s post hoc test: * p < 0.05, ** p < 0.01, and *** p < 0.001.
(CD spectra are sensitive to the conformation of chiral molecules.)

For the molecule `CSc1ccc(C(=O)/C=C/c2cc(C)c(OC(C)(C)C(=O)O)c(C)c2)cc1` [elafibranor], the results for the Emax in experiment [1] and in experiment [2] were 38.5% and 14.8%, respectively. The EC50 (as a rule, the concentration giving half of the maximal effect) in experiment [1] came out at 388 nM; in experiment [3], 11.8 µM. For the same molecule, in experiment [4], the “Effect on Tm of PPARδ-LBD (in words)” value was “did not significantly alter the Tm values”.
With `O=C(O)CCCc1cc2cc(Cl)ccc2n1S(=O)(=O)c1ccc2ncsc2c1` [lanifibranor], the Emax in experiment [1] and in experiment [2] was 13.3% each time. In addition, the 50% effective concentration (EC50) in experiment [1] came to 4660 nM; in experiment [2] it was 398 nM; in experiment [3] it was 7.57 µM. Further, the “Effect on Tm of PPARδ-LBD (in words)” value in experiment [4] is on record as “increased the Tm values”.
On to `CCO[C@@H](Cc1ccc(OCCn2c(C)ccc2-c2ccc(SC)cc2)cc1)C(=O)O` [saroglitazar], for which the Emax in experiment [1] is 56.4%; in experiment [2], 6%. For the same molecule, the figures for the concentration giving a half-maximal response (EC50) in experiment [1], in experiment [2] and in experiment [3] were 190 nM, more than 10000 nM and 3.44 µM, respectively. For the same molecule, the “Effect on Tm of PPARδ-LBD (in words)” value in experiment [4] is reported as “highly increased the Tm values”.
Regarding `CCO[C@H](COc1ccc(C(F)(F)F)cc1)CSc1ccc(OCC(=O)O)c(C)c1` [seladelpar], the results for the Emax in experiment [1] and in experiment [2] were 41% and 99.3%, respectively. In addition, the values for the EC50 in experiment [1], in experiment [2] and in experiment [3] were 1640 nM, 20.2 nM and more than 300 µM, respectively. For the same molecule, in experiment [4], the “Effect on Tm of PPARδ-LBD (in words)” value is “increased the Tm values”.
